Data taken from patent US12655116B2, “Substituted isophthalic acid diamides” (Bayer Aktiengesellschaft, priority 2020, dated 2026).

Assays:
ECHCG [1] = experiment: Post-emergence herbicidal action against ECHCG; format: in vivo, Echinochloa crus-galli; conditions: Echinochloa crus-galli, 504 h, dosage 20 g/ha
Procedure, shortened: (§1)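 Foliar application at one-leaf stage of formulated test compounds, aqueous spray at 600–800 l/ha with 0.2% wetting agent. Greenhouse, optimal conditions, ~3 weeks; damage scored visually in % relative to untreated plants.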

ALOMY [2] = experiment: Pre-emergence herbicidal action against ALOMY; format: in vivo, Alopecurus myosuroides; conditions: Alopecurus myosuroides, 504 h; 80 g/ha, pre-emergence, scored visually after 3 weeks vs untreated controls (100% = plants have died, 0% = like control plants)
Procedure, shortened: (§2)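 Greenhouse pots of sandy loam held seeds covered with soil, onto which the compound was applied before emergence. An aqueous suspension or emulsion of WP or EC was used at 600 to 800 l/ha with 0.2% wetting agent. Percent damage was judged visually at 3 weeks.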

DIGSA = experiment: Pre-emergence herbicidal action against DIGSA; format: in vivo, Digitaria sanguinalis; conditions: Digitaria sanguinalis, 504 h; for pest or weed control at 80 g/ha: dosage 80 g/ha
Procedure, shortened: as §2

VIOTR [3] = experiment: Pre-emergence herbicidal action against VIOTR; format: in vivo, Viola tricolor; conditions: Viola tricolor, 504 h; for pest or weed control at 20 g/ha: dosage 20 g/ha; for pest or weed control at 80 g/ha: dosage 80 g/ha
Procedure, shortened: as §2

SETVI [4] = experiment: Post-emergence herbicidal action against SETVI; format: in vivo, Setaria viridis; conditions: Setaria viridis, 504 h; for pest or weed control at 20 g/ha: dosage 20 g/ha
Procedure, shortened: as §1

ABUTH [5] = experiment: Post-emergence herbicidal action against ABUTH; format: in vivo, Abutilon theophrasti; conditions: Abutilon theophrasti, 504 h, dosage 20 g/ha, visual assessment about 3 weeks after treatment vs untreated controls
Procedure, shortened: as §1

AMARE [6] = experiment: Pre-emergence herbicidal action against AMARE; format: in vivo, Amaranthus retroflexus; conditions: Amaranthus retroflexus, 504 h, scored visually after 3 weeks vs untreated controls, 100% = plants have died, 0% = like control plants
Procedure, shortened: as §2

AVEFA [7] = experiment: Post-emergence herbicidal action against AVEFA; format: in vivo, Avena fatua; conditions: Avena fatua, 504 h, visual assessment about 3 weeks after treatment, 100% = plants have died, 0% = like control plants
Protocol: Seeds of monocotyledonous and dicotyledonous weed and crop plants are laid out in sandy loam soil in wood-fiber pots, covered with soil and cultivated in a greenhouse under good growth conditions. 2 to 3 weeks after sowing, the test plants are treated at the one-leaf stage. The compounds of the invention, formulated in the form of wettable powders (WP) or as emulsion concentrates (EC), are then sprayed onto the green parts of the plants in the form of an aqueous suspension or emulsion at a water application rate equivalent to 600 to 800 l/ha, with addition of 0.2% wetting agent. After the test plants have been left to stand in the greenhouse under optimal growth conditions for about 3 weeks, the action of the preparations is assessed visually in comparison to untreated controls (herbicidal action in percent (%): 100% activity=the plants have died, 0% activity=like control plants). […] The tables below illustrate, in an illustrative manner, the post-emergence herbicidal action of the compounds of the invention, the herbicidal activity being stated in percent.

AVEFA [8] = experiment: Pre-emergence herbicidal action against AVEFA; format: in vivo, Avena fatua; conditions: Avena fatua, 504 h, pre-emergence; for pest or weed control at 20 g/ha: scored visually after 3 weeks, 100% = plants have died, 0% = like control plants
Procedure, shortened: as §2

MATIN = experiment: Pre-emergence herbicidal action against MATIN; format: in vivo, Matricaria inodora; conditions: Tripleurospermum inodorum, 504 h; for pest or weed control at 20 g/ha: dosage 20 g/ha; for pest or weed control at 80 g/ha: dosage 80 g/ha
Procedure, shortened: as §2

ABUTH [9] = experiment: Pre-emergence herbicidal action against ABUTH; format: in vivo, Abutilon theophrasti; conditions: Abutilon theophrasti, 504 h, 80 g/ha, scored visually after 3 weeks vs untreated controls (100% = plants have died, 0% = like control plants)
Procedure, shortened: as §2

ECHCG [10] = experiment: Pre-emergence herbicidal action against ECHCG; format: in vivo, Echinochloa crus-galli; conditions: Echinochloa crus-galli, 504 h, 80 g/ha
Procedure, shortened: as §2

SETVI [11] = experiment: Pre-emergence herbicidal action against SETVI; format: in vivo, Setaria viridis; conditions: Setaria viridis, 504 h, dosage 80 g/ha
Procedure, shortened: as §2

VERPE = experiment: Pre-emergence herbicidal action against VERPE; format: in vivo, Veronica persica; conditions: Veronica persica, 504 h; for pest or weed control at 80 g/ha: dosage 80 g/ha
Procedure, shortened: as §2

ALOMY [12] = experiment: Post-emergence herbicidal action against ALOMY; format: in vivo, Alopecurus myosuroides; conditions: Alopecurus myosuroides, 504 h, dosage 20 g/ha, visual assessment about 3 weeks after treatment vs untreated controls
Procedure, shortened: as §1

AMARE [13] = experiment: Post-emergence herbicidal action against AMARE; format: in vivo, Amaranthus retroflexus; conditions: Amaranthus retroflexus, 504 h, 20 g/ha, visual assessment about 3 weeks after treatment, 100% = plants have died, 0% = like control plants
Procedure, shortened: as §1

VIOTR [14] = experiment: Post-emergence herbicidal action against VIOTR; format: in vivo, Viola tricolor; conditions: Viola tricolor, 504 h
Procedure, shortened: as §1

POLCO = experiment: Pre-emergence herbicidal action against POLCO; format: in vivo, Polygonum convolvulus; conditions: Fallopia convolvulus, 504 h
Procedure, shortened: as §2

STEME = experiment: Pre-emergence herbicidal action against STEME; format: in vivo, Stellaria media; conditions: Stellaria media, 504 h, dosage 80 g/ha
Description: Seeds of monocotyledonous and dicotyledonous weed plants and crop plants are laid out in sandy loam soil in wood-fiber pots and covered with soil. The compounds of the invention, formulated in the form of wettable powders (WP) or as emulsion concentrates (EC), are then applied to the surface of the covering soil in the form of an aqueous suspension or emulsion at a water application rate equivalent to 600 to 800 l/ha, with addition of 0.2% wetting agent. After the treatment, the pots are placed in a greenhouse and kept under good growth conditions for the trial plants. The damage to the test plants is scored visually after a test period of 3 weeks by comparison with untreated controls (herbicidal activity in percent (%): 100% activity=the plants have died, 0% activity=like control plants). […] The tables below illustrate, in an illustrative manner, the post-emergence herbicidal action of the compounds of the invention, the herbicidal activity being stated in percent.

SMILES	pest or weed control at 80 g/ha (ALOMY [2]) [%]	pest or weed control at 80 g/ha (DIGSA) [%]	pest or weed control at 20 g/ha (VIOTR [3]) [%]	pest or weed control at 80 g/ha (VIOTR [3]) [%]	pest or weed control at 20 g/ha (SETVI [4]) [%]	pest or weed control at 20 g/ha (ABUTH [5]) [%]	pest or weed control at 20 g/ha (AMARE [6]) [%]	pest or weed control at 80 g/ha (AMARE [6]) [%]	pest or weed control at 20 g/ha (AVEFA [7]) [%]	pest or weed control at 80 g/ha (AVEFA [8]) [%]	pest or weed control at 20 g/ha (AVEFA [8]) [%]	pest or weed control at 20 g/ha (MATIN) [%]	pest or weed control at 80 g/ha (MATIN) [%]	pest or weed control at 80 g/ha (ABUTH [9]) [%]	pest or weed control at 80 g/ha (ECHCG [10]) [%]	pest or weed control at 80 g/ha (SETVI [11]) [%]	pest or weed control at 80 g/ha (VERPE) [%]	pest or weed control at 20 g/ha (AMARE [13]) [%]	pest or weed control at 20 g/ha (VIOTR [14]) [%]	other results
Cc1c(C(=O)Nc2nnnn2C)ccc(C(F)(F)F)c1C(=O)NCC(F)(F)F [Example 1-29]	100	100	100	100	80	80	100	100	90	90	80	100	100	100	90	100				pest or weed control at 20 g/ha (ECHCG [1]): 80%; pest or weed control at 20 g/ha (DIGSA; dosage 20 g/ha): 100%; pest or weed control at 5 g/ha (AVEFA [7]; 5 g/ha): 80%
CCn1nnnc1NC(=O)c1ccc(Cl)c(C(=O)NC2CC2)c1Br [Example 2-349]	100		90	100	100	80	100	100	90	100	90	90	100	100	90	100	80	100	80	pest or weed control at 20 g/ha (ALOMY [12]): 80%; pest or weed control at 5 g/ha (SETVI [4]; dosage 5 g/ha): 90%
Cn1nnnc1NC(=O)c1ccc(S(C)(=O)=O)c(C(=O)NC2CC2)c1Cl [Example 1-125]		90		100			90	100				80	100				80	80	100	pest or weed control at 20 g/ha (VERPE; dosage 20 g/ha): 80%; pest or weed control at 20 g/ha (POLCO; dosage 20 g/ha): 80%; pest or weed control at 80 g/ha (POLCO; dosage 80 g/ha): 80%; pest or weed control at 80 g/ha (STEME): 100%; pest or weed control at 5 g/ha (VIOTR [14]; 5 g/ha): 100%
